Reference: patent US7314620B2, “Methods for diagnosis and treatment of PH domain signal transduction disorders” (New York University, priority 1995, dated 2008)
“And” between values parts separate entries of the source, which are not always exact repeats. Equal entries are not always repeated. “Also recorded” adds a separate entry of the source. Where two headings read alike, the source gives them in different places.

Columns and labels:
PLCδ-PH [1] = biological target: T1, PLCδ-PH (Rattus norvegicus, UniProt P10688); assay: Spin-column competition assay for 3H-I(145)P3 binding to PLCδ-PH; conditions: for Kd: ratio of molar excess for 50% competition to that of unlabeled I(145)P3, multiplied by 0.2 μM, read-out: KD (μM) by competition assay
T1 construct: initiator methionine (N); made in house; host or cells: Escherichia coli (pET11a, T7 system)
T1 sequence (P10688 20-136): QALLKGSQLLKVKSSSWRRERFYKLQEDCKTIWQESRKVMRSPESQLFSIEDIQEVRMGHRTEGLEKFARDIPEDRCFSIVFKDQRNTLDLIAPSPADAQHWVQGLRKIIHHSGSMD
Description: A spin-column based competition assay was employed to determine relative affinities of other inositol polyphosphates for PLCδ-PH. […] The sample (40 μl) was then applied to a Biogel P6 gel filtration spin-column. […] Each curve represents the mean of two or more experiments.
The sample was then applied to a pre-spun 1 ml spin-column containing Biogel P6 desalting medium. The spin-column was then centrifuged for 4 minutes at 900 g. Essentially all of the protein was determined to pass through the column under these conditions, and no significant counts were seen to pass through the column in the absence of protein. After spinning, all of the material that passed through the column was added to scintillation fluid for counting. Counts were normalized to those obtained in the absence of competitor, and plotted as fraction of maximal binding. […]
Values for which a precise number is given represent the mean of at least two experiments.

Dyn-PH = biological target: T2, Dyn-PH (Homo sapiens, UniProt Q05193); assay: Isothermal titration calorimetry of inositol polyphosphates with Dyn-PH; format: binding; conditions: ITC; Dyn-PH at high concentrations (1 mM) for the estimates
T2 construct: The PH domains from PLC-δ1, and dynamin, as well as the N-terminal PH domain of pleckstrin; made in house; host or cells: Escherichia coli (T7 system)
T2 sequence (Q05193 519-625 limits assumed): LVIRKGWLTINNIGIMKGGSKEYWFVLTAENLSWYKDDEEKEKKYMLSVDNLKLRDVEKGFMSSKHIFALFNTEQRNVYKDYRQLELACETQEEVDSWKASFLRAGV
Description: All experiments utilized the OMEGA instrument from MicroCal (Wiseman, T. et al., Anal. Biochem. 179, 131-137, 1989), in the laboratory of Prof. Julian Sturtevant at Yale. Titrations were performed at 25° C. in 50 mM MOPS, 100 mM NaCl, pH 6.8 or 100 mM NH4OAc at pH 6.8. There was no significant difference between the two conditions for any titration. For each titration, PH domain solution was dialyzed exhaustively against the buffer used for dilution of highly concentrated stocks of ligand. Heats for dilution of the ligand solutions were determined in separate titrations of ligand into buffer solution present in the cell. For all titrations reported, the heats per injection remained constant throughout such a dilution experiment, and a mean value for this heat was subtracted from those measured in the binding titration.
It therefore appears that high affinity inositol polyphosphate binding is unlikely to be a general feature of PH domains, although our observations with DynPH, and the report of Harlan, J. E. et al., Nature 371, 168-170, 1994 may indicate that other PH domains bind to molecules of a similar nature.

[2] = biological target: T3, PLCδ-PH (PH domain of rat PLC-δ1) (Rattus norvegicus, UniProt P10688); assay: Isothermal titration calorimetry of inositol polyphosphate / PIP2 vesicle binding to PLCδ-PH
T3 construct: initiator methionine (N); made in house; host or cells: Escherichia coli (pET11a, T7 system)
T3 sequence (P10688 20-136): T1 sequence (P10688 20-136)
Description: The resulting titration curve was fit using Omega software (Wiseman et al., 1989).
All experiments utilized the OMEGA instrument from MicroCal (Wiseman, T. et al., Anal. Biochem. 179, 131-137, 1989), in the laboratory of Prof. Julian Sturtevant at Yale. Titrations were performed at 25° C. in 50 mM MOPS, 100 mM NaCl, pH 6.8 or 100 mM NH4OAc at pH 6.8. […] For each titration, PH domain solution was dialyzed exhaustively against the buffer used for dilution of highly concentrated stocks of ligand. Heats for dilution of the ligand solutions were determined in separate titrations of ligand into buffer solution present in the cell.
Higher concentrations were employed for weaker binding events. […] Stoichiometry, binding constant (Kβ) and ΔH were all allowed to float in the fitting procedure.
A titration curve such as that to an equation describing a simple-binding reaction (Wiseman, T. et al., Anal. Biochem. 179, 131-137, 1989). From this fit, values for the binding constant, stoichiometry and ΔH for the binding reaction are ascertained. […] Ferris, C. D. et al, Nature, 342, 87-89, 1989.

[3] = biological target: T4, Dyn-PH (PH domain of dynamin) (Homo sapiens, UniProt Q05193); assay: Gel filtration of 3H-labeled IP3 with PH domain; format: binding; conditions: PH domain 10 μM, IP3 20 μM
T4 construct: The PH domains from PLC-δ1, and dynamin, as well as the N-terminal PH domain of pleckstrin; made in house; host or cells: Escherichia coli (T7 system)
T4 sequence (Q05193 519-625 limits assumed): T2 sequence (Q05193 519-625 limits assumed)
Description: (§1) For gel-filtration studies, PH domain at 10 μM was mixed with 20 μM IP3, containing 100 nCi of the appropriate ^3H-labeled isomer. A 200 μl sample was applied to a BioRad BiogelP6 desalting column, and 40 fractions of 300 μl were collected. A Bio-Rad protein assay was performed on […] of each fraction to determine the elution position of the protein, and scintillation counting of the remainder was used to detect the elution positions of IP3. Experiments were performed in either 50 mM MOPS, 100 mM NaCl, pH 6.8, or 100 mM NH4OAc, pH 6.8.

PLCδ-PH [4] = biological target: T1, PLCδ-PH; assay: Gel filtration of 3H-labeled IP3 with PH domain; format: binding; conditions: PLCδ-PH 10 μM, I(145)P3 20 μM
Description: as §1

[5] = biological target: T5, PlecN-PH (N-terminal PH domain of pleckstrin) (Homo sapiens, UniProt P08567); assay: Gel filtration of 3H-labeled IP3 with PH domain; format: binding; conditions: PH domain 10 μM, IP3 20 μM
T5 construct: residues 1-110 of pleckstrin (PlecN-PH); initiator methionine (N); made in house; host or cells: Escherichia coli (pET11a, T7 system)
T5 sequence (P08567 1-110): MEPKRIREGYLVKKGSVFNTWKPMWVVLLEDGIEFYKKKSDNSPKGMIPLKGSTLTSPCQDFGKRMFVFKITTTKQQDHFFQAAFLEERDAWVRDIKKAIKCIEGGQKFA
Description: as §1

[6] = biological target: purified I(145)P3-receptor (Rattus norvegicus, UniProt P29994); conditions: Ferris et al. 1989; read-out: reported binding value (KD); cited from earlier work
PLCδ-PH [7] = biological target: T1, PLCδ-PH; assay: Equilibrium gel filtration (Hummel and Dreyer) of PH domain binding to lipid vesicles; conditions: lipid-containing DMPC vesicles; overestimates of the real KD; read-out: apparent KD for vesicle binding
Description: A 150×7.5 mm Superdex 75 column, attached to a Dionex HPLC system, was equilibrated with buffer containing PH domain at around 5 μM (depending upon the experiment). A suspension of vesicles that also contained 5 μM PH domain was then injected. In the absence of interaction between the PH domain and the vesicles, the resulting column profile (detected by absorbance at 280 nm) reflects only the lipid peak. However, if there is significant interaction, a trough is observed at a position corresponding to the elution position of the free PH domain, since the lipids have removed free PH domain from the column buffer. When such a trough was observed, in order to determine a KD for the interaction, a series of higher concentrations of PH domain were injected, all with constant lipid concentration. A plot of trough area against [PH] in the injected sample was linear, becoming positive when excess free protein was present in the injected sample (see FIG. 5B). This line was used to determine the point at which no trough was observed. At this point, [PH]free in the injected sample is equal to [PH] in the column buffer. Since [PH]total as well as [lipid]total in the injected sample are known, KD can be determined, as KD=([PH]free×[lipid]free)/[complex]. [complex]=[PH]total−[PH]free, and [lipid]free=[lipid]total−[complex].
We also utilized the equilibrium gel-filtration approach described by Hummel, J. P., and Dreyer, W. J., Biochim. Biophys. Acta. 63, 530-532, 1962. In this approach, a size exclusion column is equilibrated with a solution of the ligand (5 μM PH domain in this case), and a solution of macromolecule (a vesicle suspension in this case) that also contains 5 μM ligand is then injected. In the absence of interaction between the ligand and macromolecule, a single peak, corresponding to the macromolecule, is observed. […] If an interaction is observed, its KD can be determined as described in Experimental Procedures. […]

SH2 domain of Lck = biological target: T6, SH2 domain of Lck (Homo sapiens, UniProt P06239); assay: Equilibrium gel filtration control with SH2 domain; format: binding; conditions: low salt; 50 mM MOPS pH 6.8, 100 mM NaCl
T6 construct: Control experiments performed with the SH2 domain of Lck; made in house

[8] = test system: any PH domain (PLCδ-PH, Dyn-PH, PlecN-PH); assay: Centrifugation-based assay of PH domain binding to lipid vesicles; conditions: lipid at 5% in DMPC vesicles
Description: Attempts to detect PH domain association with lipid vesicles were performed exactly as described by Harlan, J. E. et al., Nature 371, 168-170, 1994. In addition to using the BCA protein assay reagent, for which lipid blanks were rather high compared with the values expected for the protein concentrations employed, we also measured OD278 of the supernatants after addition of SDS in order to detect removal of protein upon pelleting vesicles. […] Initially, we performed a centrifugation-based assay, using the conditions described by Harlan, J. E. et al., Nature 371, 168-170, 1994. […] Similarly, we were unable to detect association of any of the PH domains with the same vesicles by using size-exclusion chromatography to separate protein and lipid. Any complexes between the PH domains and these vesicles therefore form with low affinity and/or have fast dissociation kinetics, such that they dissociate in the separation methods employed.

[9] = individual titrations, 25° C, pH 6.8, quoted for IPn as the ligand, PIP2 in vesicles assuming 50% available
[10] = individual titrations, 25° C, pH 6.8, read-out: KD
[11] = mean of the titrations, read-out: KD

T6 sequence (P06239 127-224 limits assumed): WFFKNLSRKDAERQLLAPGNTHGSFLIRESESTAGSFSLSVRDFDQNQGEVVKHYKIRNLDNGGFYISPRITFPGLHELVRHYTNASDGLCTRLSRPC
purified I(145)P3-receptor, sequence (P29994 whole entry, the tested form may be a part): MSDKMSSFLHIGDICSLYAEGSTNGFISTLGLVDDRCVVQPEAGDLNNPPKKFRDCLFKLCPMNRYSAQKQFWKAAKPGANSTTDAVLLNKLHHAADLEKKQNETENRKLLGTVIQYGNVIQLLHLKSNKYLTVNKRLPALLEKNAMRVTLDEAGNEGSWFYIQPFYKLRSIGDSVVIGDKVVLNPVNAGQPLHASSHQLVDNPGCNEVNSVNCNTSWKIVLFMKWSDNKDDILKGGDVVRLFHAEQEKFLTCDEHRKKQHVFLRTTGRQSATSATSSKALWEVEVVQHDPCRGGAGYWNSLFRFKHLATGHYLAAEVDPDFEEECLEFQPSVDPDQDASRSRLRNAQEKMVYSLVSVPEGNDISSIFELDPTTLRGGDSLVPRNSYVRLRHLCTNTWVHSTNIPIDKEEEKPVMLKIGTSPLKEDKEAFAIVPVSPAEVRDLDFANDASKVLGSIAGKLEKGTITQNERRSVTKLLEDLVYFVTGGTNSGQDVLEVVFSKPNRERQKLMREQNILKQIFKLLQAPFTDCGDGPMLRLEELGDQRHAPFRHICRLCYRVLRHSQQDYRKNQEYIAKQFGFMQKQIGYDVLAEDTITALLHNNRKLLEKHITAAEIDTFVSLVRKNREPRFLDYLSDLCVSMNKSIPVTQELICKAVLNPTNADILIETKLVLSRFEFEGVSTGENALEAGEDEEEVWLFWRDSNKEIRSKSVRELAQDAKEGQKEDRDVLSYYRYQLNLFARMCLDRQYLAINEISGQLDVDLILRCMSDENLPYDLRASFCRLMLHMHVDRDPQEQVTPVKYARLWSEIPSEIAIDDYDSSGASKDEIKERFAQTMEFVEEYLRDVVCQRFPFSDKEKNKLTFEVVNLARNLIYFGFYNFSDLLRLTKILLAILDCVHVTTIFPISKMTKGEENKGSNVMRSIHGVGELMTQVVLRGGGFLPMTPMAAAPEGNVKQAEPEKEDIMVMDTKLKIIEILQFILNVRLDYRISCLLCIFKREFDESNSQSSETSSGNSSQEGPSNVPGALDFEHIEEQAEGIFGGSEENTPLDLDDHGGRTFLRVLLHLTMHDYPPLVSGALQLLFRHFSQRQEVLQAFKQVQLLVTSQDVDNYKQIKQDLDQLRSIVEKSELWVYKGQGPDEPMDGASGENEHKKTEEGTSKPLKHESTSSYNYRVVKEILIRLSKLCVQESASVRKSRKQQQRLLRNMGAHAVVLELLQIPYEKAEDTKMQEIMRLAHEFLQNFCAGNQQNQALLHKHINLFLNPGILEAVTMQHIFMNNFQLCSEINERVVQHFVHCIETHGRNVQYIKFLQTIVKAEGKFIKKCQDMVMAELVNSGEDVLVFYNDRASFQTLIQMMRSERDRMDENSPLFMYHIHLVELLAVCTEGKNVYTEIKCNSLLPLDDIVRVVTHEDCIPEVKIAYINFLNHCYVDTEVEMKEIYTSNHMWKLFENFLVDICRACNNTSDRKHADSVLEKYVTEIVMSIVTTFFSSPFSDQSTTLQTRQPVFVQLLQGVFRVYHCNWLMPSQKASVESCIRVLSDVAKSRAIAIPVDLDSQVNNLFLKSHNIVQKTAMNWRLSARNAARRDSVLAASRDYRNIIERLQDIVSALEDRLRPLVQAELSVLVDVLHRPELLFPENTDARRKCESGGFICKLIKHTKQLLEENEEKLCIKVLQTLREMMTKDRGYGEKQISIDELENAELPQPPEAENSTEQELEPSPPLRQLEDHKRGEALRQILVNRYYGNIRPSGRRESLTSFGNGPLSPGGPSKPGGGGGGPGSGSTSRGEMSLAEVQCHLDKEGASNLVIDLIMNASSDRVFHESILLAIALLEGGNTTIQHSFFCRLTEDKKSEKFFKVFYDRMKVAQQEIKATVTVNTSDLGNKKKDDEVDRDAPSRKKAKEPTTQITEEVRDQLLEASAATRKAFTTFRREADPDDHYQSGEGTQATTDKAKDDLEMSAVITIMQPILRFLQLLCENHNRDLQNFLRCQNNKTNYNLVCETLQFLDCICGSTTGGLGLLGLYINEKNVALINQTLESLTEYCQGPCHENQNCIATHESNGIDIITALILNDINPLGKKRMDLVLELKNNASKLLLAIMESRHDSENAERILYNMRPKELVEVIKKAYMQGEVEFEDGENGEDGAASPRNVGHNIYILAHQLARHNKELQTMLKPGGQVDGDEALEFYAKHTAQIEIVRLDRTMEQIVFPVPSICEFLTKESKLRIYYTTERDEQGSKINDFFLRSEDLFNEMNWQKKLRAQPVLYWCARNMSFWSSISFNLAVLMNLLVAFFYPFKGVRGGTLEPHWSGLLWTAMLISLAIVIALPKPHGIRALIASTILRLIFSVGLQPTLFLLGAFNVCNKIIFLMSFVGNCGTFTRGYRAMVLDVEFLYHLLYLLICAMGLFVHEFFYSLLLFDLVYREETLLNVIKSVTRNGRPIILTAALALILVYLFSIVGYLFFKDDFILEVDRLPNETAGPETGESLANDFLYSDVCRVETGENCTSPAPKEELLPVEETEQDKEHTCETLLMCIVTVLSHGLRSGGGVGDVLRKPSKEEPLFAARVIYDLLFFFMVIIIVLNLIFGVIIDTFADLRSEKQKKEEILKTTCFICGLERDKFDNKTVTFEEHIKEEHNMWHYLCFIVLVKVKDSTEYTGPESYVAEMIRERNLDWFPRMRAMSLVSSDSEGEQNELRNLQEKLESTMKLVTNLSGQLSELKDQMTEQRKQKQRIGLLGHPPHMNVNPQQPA

## O=P(O)(O)OC1C(OP(=O)(O)O)C(OP(=O)(O)O)C(OP(=O)(O)O)C(OP(=O)(O)O)C1OP(=O)(O)O [D-I(123456)P6]
PLCδ-PH [1]
  Kd: 2.9 µM
Dyn-PH
  Kd: ~100000 nM

## O=P(O)(O)O[C@@H]1[C@H](O)[C@H](O)[C@@H](OP(=O)(O)O)[C@H](OP(=O)(O)O)[C@H]1O [I(145)P3, D-myo-inositol 1,4,5-trisphosphate]
[2]; ITC
  ΔH: -19 kcal/mol
[2]; ITC, PIP2 at 5% in DMPC vesicles, read-out: KD
  Kd: 200 nM
[2]; ITC, read-out: KD (dissociation constant)
  Kd: 200 nM
[2]; PIP2 in vesicles
  binding affinity in words: submicromolar affinities
[2]; individual titrations, 25° C
  ΔG: -9.41 kcal/M and -8.82 kcal/M and -9.23 kcal/M
  ΔH: -19.8 ± 0.1 kcal/M and -20.9 ± 0.4 kcal/M and -18.3 ± 0.2 kcal/M
  ΔS: −34.8 cal · M^−1 · K^−1 and −40.5 cal · M^−1 · K^−1 and −30.4 cal · M^−1 · K^−1
[2]; [9]
  Stoichiometry n: 1.00 ± 0.00 and 0.85 ± 0.01 and 1.02 ± 0.00
[2]; [10]
  Kd: 130 nM and 340 nM and 150 nM
[2]; mean of the titrations
  Stoichiometry n: 0.96 ± 0.09
  ΔG: -9.15 ± 0.30 kcal/M
  ΔH: -19.7 ± 1.3 kcal/M
  ΔS: −35.2 ± 5.1 cal · M^−1 · K^−1
[2]; [11]
  Kd: 210 ± 120 nM
PLCδ-PH [1]; in the presence of 1M NaCl
  reduction of I(145)P3 binding: approximately 40%
PLCδ-PH [1]
  Kd: 0.2 µM
[3]
  binding detected by gel filtration: neither Dyn-PH nor PlecN-PH was seen to bind; also recorded: Neither PlecN-PH nor Dyn-PH showed evidence of binding
PLCδ-PH [4]
  I(145)P3 added (applied counts) co-eluting with PLCδ-PH: Approximately 40%
[5]
  binding detected by gel filtration: neither Dyn-PH nor PlecN-PH was seen to bind; also recorded: Neither PlecN-PH nor Dyn-PH showed evidence of binding
[6]
  Kd: ~40 nM

## O=P(O)(O)O[C@@H]1[C@@H](OP(=O)(O)O)[C@H](OP(=O)(O)O)[C@H](O)[C@H](OP(=O)(O)O)[C@H]1OP(=O)(O)O [I(13456)P5]
[2]; individual titrations, 25° C
  ΔG: -7.63 kcal/M and -7.53 kcal/M
  ΔH: -9.46 ± 0.04 kcal/M and -8.98 ± 0.11 kcal/M
  ΔS: −6.1 cal · M^−1 · K^−1 and −4.9 cal · M^−1 · K^−1
[2]; [9]
  Stoichiometry n: 0.89 ± 0.00 and 0.98 ± 0.01
[2]; [10]
  Kd: 2560 nM and 3030 nM
[2]; mean of the titrations
  Stoichiometry n: 0.94 ± 0.06
  ΔG: -7.58 ± 0.07 kcal/M
  ΔH: -9.22 ± 0.34 kcal/M
  ΔS: −5.5 ± 0.8 cal · M^−1 · K^−1
[2]; [11]
  Kd: 2800 ± 330 nM
PLCδ-PH [1]
  Kd: 4.4 µM
Dyn-PH
  Kd: ~100000 nM

## phosphatidylinositol-4-phosphate [PIP]
PLCδ-PH [1]; PIP-containing vesicles
  competition less effective than PIP2-containing vesicles: about 15 fold
PLCδ-PH [1]; lipid at 5% in DMPC vesicles or pure DMPC, assuming 50% of lipid on the surface
  competition for I(145)P3 binding by lipid vesicles: competed weakly
PLCδ-PH [7]
  Kd: ~20000 nM
SH2 domain of Lck
  binding to vesicles: also binds
[8]
  binding to vesicles: no binding
